Results reported in paper PMC11123991, “Novel 9-Methylanthracene Derivatives as p53 Activators for the Treatment of Glioblastoma Multiforme” (Molecules, 2024).

Experiments:
[1] = system: human glioblastoma cell line U87; assay: MTT antiproliferative assay in U87 cells; type: cell-based; details: for inhibition at 10 µM: read-out: U87 (% Inhib. @ 10 µM); for IC50: mean ± SD (n = 3); for fold decrease in anti-glioma activity: relative to 14a–14c
Experimental: (§1) U87, Hela, MCF-7, and HHL-5 cells were provided by Chinese Academy of Medical Sciences (Beijing, China). The cancer cells were cultured in DMEM media containing 10% heat-inactivated fetal calf serum. All cells were incubated at 37 °C in a 5% CO2 humidified atmosphere and harvested in the exponential growth phase for assays.
(§2) Cells were seeded in a 96-well plate and treated with the test substance at the desired concentration for 72 h. In cytotoxicity experiments, cells were treated with 10 µM of the test compound or 1 µM XI-011 and doxorubicin as positive controls. DMSO (1%) was used as a negative control. In the IC50 analysis, doxorubicin, XI-011, 13d, 13e, 14a, 14b, and, 14n were applied to HHL-5 at 50, 25, 10, 5, 2.5, 1.25, 0.625, 0.3125, and 0.15625 µM and U87 cells at 10, 7.5, 5, […], 1.25, 0.625, 0.3125, and 0.15625 µM, whereas 30, 10, 3, 0.5, and 0.1 µM were applied to Hela and MCF-7 cells. Treated cells were incubated with an MTT solution for 2 h and then with DMSO to dissolve the crystals. Absorbance was determined at 570 nm using a microplate reader (BioTek, Seattle, DC, USA). IC50 values were calculated using the Hill model in GraphPad Prism 8.0.2 software.

[2] = system: human cervical cancer cell line HeLa; assay: MTT antiproliferative assay in HeLa cells; type: cell-based; details: for IC50: Homo sapiens, 72 h, MTT, mean ± SD (n = 3)
Experimental: as §1, §2

[3] = system: HHL-5 human normal cell line; assay: MTT cytotoxicity assay in normal HHL-5 cells; type: cell-based; details: for IC50: Homo sapiens, HHL-5, normal cell line, 72 h, MTT, mean ± SD (n = 3)
Experimental: as §1, §2

[4] = system: human breast cancer cell line MCF-7; assay: MTT antiproliferative assay in MCF-7 cells; type: cell-based; details: MCF7, 72 h, mean ± SD (n = 3)
Experimental: as §1, §2

[5] = system: p53; assay: Western blot of p53 expression in U87 cells; type: cell-based, human; details: U87, 24 h, 0.5, 1 and 2 µM
Experimental: (§3) Protein levels in U87 cells treated with test compound 13e (0.5, 1, and 2 µM) for 24 h were measured by Western blot analysis as described previously. Briefly, after 13e treatment, cells were lysed in RIPA buffer. Proteins were separated by 8% SDS-PAGE and transferred to a PVDF membrane (Millipore, Billerica, MA, USA). The membrane was incubated with an anti-MDM4 antibody (A300-287A, Bethyl Laboratories, Montgomery, TX, USA), anti-p53 antibody (sc-126, Santa Cruz Biotechnology, Inc., Dallas, TX, USA), or anti-GAPDH antibody (AG019, Beyotime, Shanghai, China) followed by an HRP-linked secondary antibody (A0216, Beyotime) for 2 h. ECL reagent was used for chemiluminescent development. Densitometric analysis of protein bands was performed using ImageJ V.1.8.0 software.

[6] = system: U87 cells; assay: Flow cytometric apoptosis analysis in U87 cells; type: cell-based, human; details: 24 h
Experimental: Reducing MDM4 expression restores the p53 function and increases apoptotic cells. The apoptotic effects of compound 13e were determined in U87 cells by flow cytometry. […] 13e induced 21% apoptosis at 1 µM, which was slightly lower than the 23% apoptosis induced by XI-011. At 2 µM 13e, apoptosis was up to 25.9%. […] The mechanism by which 13e induces apoptosis in U87 cells may be related to its ability to downregulate MDM4 expression and stabilize p53 protein.

[7] = system: MDM4; assay: Western blot of MDM4 expression in U87 cells; type: cell-based, human; details: U87, 24 h, 0.5, 1 and 2 µM
Experimental: as §3

[8] = system: U87 cells; assay: Flow cytometric cell cycle analysis in U87 cells; type: cell-based, human; details: U87, 24 h, 0.5, 1 and 2 µM
Experimental: Cells were cultured for 24 h in a 6-well plate, and then the test compound (0.5, 1, and 2 µM) was added to the culture medium. After treatment for 24 h, the cells were harvested and fixed at 4 °C overnight in an ethanol solution (80%). The cells were washed with PBS and stained with a PI solution ([…] in PBS). After 30 min, the cells were subjected to flow cytometry (C6; BD, Franklin Lakes, NJ, USA). The recorded cell fluorescence was used to analyze the cell cycle distribution.

[9] = system: MDM4; details: Figure 1, representative MDM4 inhibitors; reference not given; cited from earlier work
[10] = Homo sapiens, U-87 MG, 72 h, 10 µM, 72 h, MTT, triplicates
[11] = Homo sapiens, U-87 MG, 72 h, MTT

SMILES: Cc1ccc(CSC(=N)N)c2ccccc12 [12a]
- inhibition at 10 µM [1, 10]: 15.2%

SMILES: N=C(N)SCc1cccc2ccccc12 [12b]
- inhibition at 10 µM [1, 10]: 9%

SMILES: Cc1ccc(CSC(=N)N)cc1 [12c]
- inhibition at 10 µM [1, 10]: 11.8%

SMILES: N=C(N)SCc1ccc([N+](=O)[O-])cc1 [12d]
- inhibition at 10 µM [1, 10]: 14.8%

SMILES: N=C(N)SCc1ccc2ccccc2c1 [12e]
- inhibition at 10 µM [1, 10]: 1.5%

SMILES: Cc1ccc(CSC(=N)NN)c2ccccc12 [12f]
- inhibition at 10 µM [1, 10]: 13.1%

SMILES: N=C(NN)SCc1cccc2ccccc12 [12g]
- inhibition at 10 µM [1, 10]: 14.5%

SMILES: CNC(=N)SCc1ccc(C)c2ccccc12 [12h]
- inhibition at 10 µM [1, 10]: 9.9%

SMILES: CC(=O)NC(=N)SCc1ccc(C)c2ccccc12 [12i]
- inhibition at 10 µM [1, 10]: 2.7%

SMILES: CC(=O)NC(=N)SCc1ccc(C)cc1 [12j]
- inhibition at 10 µM [1, 10]: 6.8%

SMILES: N=C(NN)SCc1ccc2ccccc2n1 [12k]
- inhibition at 10 µM [1, 10]: 10.7%

SMILES: CNC(=N)SCc1ccc2ccccc2n1 [12l]
- inhibition at 10 µM [1, 10]: 11.3%

SMILES: Cc1c2ccccc2c(CSC(=N)NN)c2ccccc12 [13a]
- inhibition at 10 µM [1, 10]: 57.9%
- fold more potency than 12f ([1]; U87 inhibition rate at 10 µM): approximately 4 fold

SMILES: CC(=O)NC(=N)SCc1c2ccccc2c(C)c2ccccc12 [13b]
- inhibition at 10 µM [1, 10]: 19.3%

SMILES: Cc1c2ccccc2c(CSC(=N)NC(=N)N)c2ccccc12 [13c]
- inhibition at 10 µM [1, 10]: 35.4%

SMILES: CNC(=N)SCc1c2ccccc2c(C)c2ccccc12 [13d]
- IC50 [2]: 5660 ± 290 nM
- IC50 [3]: 850 ± 100 nM
- IC50 [4]: 4740 ± 200 nM
- IC50 ([1]; 72 h, MTT): 1620 ± 20 nM
- inhibition at 10 µM [1, 10]: 93.3%
- IC50 [1, 11]: < 2000 nM

SMILES: Cc1c2ccccc2c(CSC(=N)N(C)N)c2ccccc12 [13e]
- IC50 [2]: 1630 ± 250 nM
- p53 protein expression [5]: significantly upregulated p53 protein expression
- apoptosis ([6]; U87, 1 µM): 21%
- apoptosis ([6]; U87, 2 µM): 25.9%
- fold lesser toxicity to human normal HHL-5 cells than to U87 cells ([3]; HHL-5 IC50 versus U87 IC50): 2 fold
- IC50 [3]: 1110 ± 80 nM
- MDM4 expression [7]: dose-dependent suppression of MDM4 expression
- IC50 [4]: 970 ± 110 nM
- inhibition at 10 µM [1, 10]: 88.6%
- cell cycle effect [8]: arrested U87 cells in G2/M phase

SMILES: CC(C)=NNC(=N)SCc1c2ccccc2c(C)c2ccccc12 [13f]
- inhibition at 10 µM [1, 10]: 65.1%
- fold potency improvement in U87 cells compared with aryl-derived compounds ([1]; U87 inhibition rate at 10 µM): 3–4 fold

SMILES: Cc1c2ccccc2c(CSc2ncc[nH]2)c2ccccc12 [13g]
- inhibition at 10 µM [1, 10]: 41.2%

SMILES: Cc1c2ccccc2c(CSC2=NC(=O)CC(=O)N2)c2ccccc12 [13h]
- inhibition at 10 µM [1, 10]: 0.7%

SMILES: CCOC(=O)c1cnc(SCc2c3ccccc3c(C)c3ccccc23)[nH]1 [13i]
- inhibition at 10 µM [1, 10]: 31.2%

SMILES: Cc1c2ccccc2c(CSC(=N)Nc2ccccc2)c2ccccc12 [13j]
- inhibition at 10 µM [1, 10]: 13.3%

SMILES: Cc1c2ccccc2c(CS/C(=N\c2ccccc2)Nc2ccccc2)c2ccccc12 [13k]
- inhibition at 10 µM [1, 10]: 28.1%

SMILES: CCCCCCNC(=N)SCc1c2ccccc2c(C)c2ccccc12 [13l]
- inhibition at 10 µM [1, 10]: 86.7%
- fold potency improvement in U87 cells compared with aryl-derived compounds ([1]; U87 inhibition rate at 10 µM): 3–4 fold

SMILES: CCc1c2ccccc2c(CSC(=N)N)c2ccccc12 [14a]
- IC50 [2]: 3640 ± 270 nM
- IC50 [3]: 1510 ± 160 nM
- IC50 [4]: 4560 ± 30 nM
- IC50 ([1]; 72 h, MTT): 1240 ± 240 nM
- inhibition at 10 µM [1, 10]: 79%
- IC50 [1, 11]: < 2000 nM

SMILES: CCc1c2ccccc2c(CSC(=N)NC)c2ccccc12 [14b]
- IC50 [2]: 2660 ± 190 nM
- IC50 [3]: 1620 ± 130 nM
- IC50 [4]: 4550 ± 270 nM
- IC50 ([1]; 72 h, MTT): 1350 ± 100 nM
- inhibition at 10 µM [1, 10]: 94.7%
- IC50 [1, 11]: < 2000 nM

SMILES: CCc1c2ccccc2c(CSC(=N)N(C)N)c2ccccc12 [14c]
- inhibition at 10 µM [1, 10]: 83.6%

SMILES: CCc1c2ccccc2c(CSC(=N)NC(=N)N)c2ccccc12 [14d]
- inhibition at 10 µM [1, 10]: 17.3%
- fold decrease in anti-glioma activity ([1]; U87 inhibition rate at 10 µM): 3~4 fold

SMILES: CCc1c2ccccc2c(CSC(=N)NC(C)=O)c2ccccc12 [14e]
- inhibition at 10 µM [1, 10]: 19.3%
- fold decrease in anti-glioma activity ([1]; U87 inhibition rate at 10 µM): 3~4 fold

SMILES: CCCCCCNC(=N)SCc1c2ccccc2c(CC)c2ccccc12 [14f]
- inhibition at 10 µM [1, 10]: 43.6%
- fold decrease in anti-glioma activity ([1]; U87 inhibition rate at 10 µM): 3~4 fold

SMILES: CCc1c2ccccc2c(CSC(=N)Nc2ccc(C(F)(F)F)cc2)c2ccccc12 [14g]
- inhibition at 10 µM [1, 10]: 28%
- fold decrease in anti-glioma activity ([1]; U87 inhibition rate at 10 µM): 3~4 fold

SMILES: CCCc1c2ccccc2c(CSC(=N)N)c2ccccc12 [14h]
- inhibition at 10 µM [1, 10]: 64.6%

SMILES: CNC(=N)SCc1c2ccccc2cc2ccccc12 [14i]
- U87 (% Inhib. @ 10 µM) ([1]; 10 µM, 72 h, MTT, triplicates): 76.4%
- inhibition at 10 µM [1, 10]: 83%

SMILES: N=C(NN)SCc1c2ccccc2cc2ccccc12 [14j]
- inhibition at 10 µM [1, 10]: 11.8%

SMILES: CC(C)=NNC(=N)SCc1c2ccccc2cc2ccccc12 [14k]
- inhibition at 10 µM [1, 10]: 14.2%

SMILES: CC(=O)NC(=N)SCc1c2ccccc2cc2ccccc12 [14l]
- inhibition at 10 µM [1, 10]: 0.7%

SMILES: N=C(N)SCc1c2ccccc2c(Br)c2ccccc12 [14m]
- inhibition at 10 µM [1, 10]: 36.8%

SMILES: CNC(=N)SCc1c2ccccc2c(Br)c2ccccc12 [14n]
- IC50 [2]: 7740 ± 810 nM
- fold reduction in anti-cervical cancer activity ([2]; bromo versus methyl and ethyl analogs (14a, 14b, XI-011)): 1–2 fold
- IC50 [3]: 1670 ± 160 nM
- IC50 [4]: 7600 ± 1370 nM
- IC50 ([1]; 72 h, MTT): 1840 ± 120 nM
- inhibition at 10 µM [1, 10]: 86.5%
- IC50 [1, 11]: < 2000 nM

SMILES: N=C(NN)SCc1c2ccccc2c(Br)c2ccccc12 [14o]
- inhibition at 10 µM [1, 10]: 50.7%

SMILES: N=C(NN)SCc1c2ccccc2nc2ccccc12 [14p]
- inhibition at 10 µM [1, 10]: 19%

SMILES: N=C(N)SCc1c2ccccc2nc2ccccc12 [14q]
- inhibition at 10 µM [1, 10]: 12.5%

SMILES: CCCCCCNC(=N)SCc1c2ccccc2nc2ccccc12 [14r]
- inhibition at 10 µM [1, 10]: 2.1%

SMILES: N=C(N)SC1c2ccccc2CCc2ccccc21 [14s]
- inhibition at 10 µM [1, 10]: 6.9%
- fold less potency than XI-011 ([1]; U87 inhibition rate at 10 µM): approximately 12 fold

SMILES: COc1cccc2c1C(=O)c1c(O)c3c(c(O)c1C2=O)C[C@@](O)(C(=O)CO)C[C@@H]3O[C@H]1C[C@H](N)[C@H](O)[C@H](C)O1 [DOX, doxorubicin, reference compound]
- IC50 [2]: 540 ± 50 nM
- IC50 [3]: 320 ± 20 nM
- IC50 [4]: 1320 ± 160 nM
- inhibition at 10 µM [1, 10]: 81.1%
- IC50 [1, 11]: 440 ± 60 nM

SMILES: CCOc1cc(/C=C2\C(=O)N(c3ccccc3)N=C2C)cc(Cl)c1OCC(=O)OC [SJ-172550]
- IC50 [9]: 870 nM

SMILES: Cc1c2ccccc2c(CSC(=N)N)c2ccccc12 [XI-011, (10-methylanthracen-9-yl)methyl carbamimidothioate, reference compound]
- IC50 [2]: 1510 ± 60 nM
- apoptosis ([6]; U87, 1 µM): 23%
- IC50 [3]: 550 ± 30 nM
- IC50 [4]: 4870 ± 300 nM
- inhibition at 10 µM [1, 10]: 91.8%
- IC50 [1, 11]: 690 ± 20 nM
